Here are results for one substance from patent US10285943B2, “Aptamer bioconjugate drug delivery device” (GreenMark Biomedical Inc., priority 2010, dated 2019).

The series concerns D 245 glioblastoma multiform human xenograph. The series can be described thus: In vivo studies of human xenographs implanted in athymic mice. The following applies: Free Dox control. On the procedure: Athymic mice were chosen for these studies because normal mice are capable of immunologically rejecting implanted foreign xenographs, specifically human tumors. The animals (both control and treated) were monitored for tumor regression and survival.
The procedure consisted of inoculation of a tumor brei into a subcutaneous site in athymic mice. The subcutaneous tumors were grown to approximately 200 cubic millimeters in size (6-8 mm in diameter). Subsequently, either the free drug or the drug loaded nanoparticles were injected at the tumor site or i.p. (intra peritoneal). […] The animals were treated in groups of 8 to 10 individuals.
Dispersions were 100 mg nanospheres/5 mL saline (1×0.5% Dox-nano), 200 mg nanospheres/5 mL saline (2×0.5% Dox-nano) or 400 mg nanospheres/5 mL saline (4×0.5% Dox-nano).
Injections were each 0.25 mL/20 gram mouse (all single injections).
T-C is defined as: Average of (days lived by drug-treated animal minus days lived by control animals); i.e., increased life span in days.
The Control was provided as follows: Varied—Untreated mice injected with saline; Untreated mice; Mice treated with drug-free nanospheres (100 mgs/5 mL saline).
P value: Test run for significance. P values are calculated using non-parametric statistical method by Hollander and Wolfe.
Regressions: Indicate that tumors drop below previous measurement and stay below for 2 consecutive measurements.

Consider “(7S,9S)-7-[(2R,4S,5S,6S)-4-amino-5-hydroxy-6-methyloxan-2-yl]oxy-6,9,11-trihydroxy-9-(2-hydroxyethyl)-4-methoxy-8,10-dihydro-7H-tetracene-5,12-dione [Free Dox]”, for which, under “5 mg/kg, animals with regression/group”, the Regressions is recorded as 0/10. Further, under “5 mg/kg, deaths/group”, the Toxic deaths is 0/10. In addition, the “T-C (increased life span in days)” value (drug dose 5 mg/kg, injected at the tumor site or i.p.) is on record as 1.53 days.
